In ChEMBL document CHEMBL5257056, “Accelerated Discovery of Macrocyclic CDK2 Inhibitor QR-6401 by Generative Models and Structure-Based Drug Design” (ACS Med Chem Lett, 2023):

How the values were obtained:
in vitro [1] = details: human, microsomes
in vitro [2] = details: dog, MDCK-MDR1

O=C1NCCCNC(=O)c2cccc(n2)Nc2cc([nH]n2)[C@H]2CC[C@H](C2)O1
half-life at 0.75 h, 1 µM (in vitro [1]): 1.07 h | Papp A→B at […], 5 µM (in vitro [2]): 0.9 ×10⁻⁶ cm/s
